Assay results taken from patent US20260232750A1, “COMPOSITION AND METHOD FOR INHIBITING ADVANCED GLYCATION END PRODUCTS” (ACCESS BUSINESS GROUP INTERNATIONAL LLC, priority 2022, published 2026).
Where a name gives a salt, the structure may show the parent alone.

Legend:
[1] = system: CML expression in human dermal fibroblasts (HDFs); assay: Anti-glycation activity on HDFs (CML immunofluorescence, glyoxal/MGO-induced); assay type: cell-based
Description: HDFs cells were digested from T75 flasks and seeded to 12 well culture plate on slides at 50,000 cells per well. After 48 h the cells were treated by 0.5 mM glyoxal for 48 h. Then the cells were treated with or without positive controls or active samples for an additional 48 h. At the end of the experiment, cell slides were washed once by phosphate-buffered saline (PBS) and fixed in polyformaldehyde overnight at 4° C. For […] (CML) biomarker staining, the slides were blocked in 1% bovine serum albumin (BSA) for 1 h then applied with primary CML antibody (1:50) overnight at 4° C. The next day secondary antibody (1:1000) was applied for 2 h at room temperature. […] Image J was used to quantified CML expression from different visions randomly picked by each group. Data is presented as the mean±SD, and analyzed with Student's t-test or one-way ANOVA. * P<0.05, ** P<0.01, *** P<0.001. […]
HDFs were cultured in high-glucose DMEM supplemented with 10% FBS containing 100 µg/ml of PS at 37° C. in a humidified 5% CO2 incubator. Cell viability was assessed using the CCK-8 kit. […] Counterstaining was performed by adopting anti-fluorescence quenching and sealing liquid containing DAPI, followed by visualisation and fluorescence image capture using a microscope (Leica, Germany). ImageJ software was used to quantify CML expression from different images randomly selected in each group.

[2] = system: AGEs in wild type AB zebrafish; assay: Anti-glycation activity on zebrafish (AGEs increase model, 0.4 M glucose); assay type: in vivo; details: 200 μg/mL, 5 dpf zebrafish, 24 h
Description: Zebrafish were all fed in fish culture water at 28° C. (water quality: 200 mg instant sea salt was added to 1 L reverse osmosis water, the conductivity was 450-550 μS/cm; PH 6.5~8.5; Hardness of 50-100 mg/L CaCO3), provided by a fish breeding center, experimental animal use license number: SYXK (Zhejiang) 2012-0171, feeding management in line with the international AAALAC certification (certification number: 001458) requirements. Wild type AB zebrafish are bred naturally in pairs. Zebrafish aged 5 days after fertilization (DPF) were used to evaluate the anti-aging efficacy of samples.
Five DPF wild type AB zebrafish were randomly selected and placed in 1.5 mL centrifuge tubes, with 10 zebrafish in each tube (experimental group). The extracts of Dendrobium officinale flower were given in aqueous solution with positive control aminoguanidine hydrochloride (AG) concentration of 200 μg/mL, and normal control group and model control group were set at the same time. The volume of each tube was 150 μL. […] After 24 h treatment on a 60° C. shaker, the supernatant was centrifuged and the data were collected using a multifunctional microplate reader, the fluorescent values of AGEs in each experimental group were analyzed, and the results of statistical analysis of this indicator were used to evaluate the anti-aging efficacy of samples.

[3] = system: fluorescent AGEs (BSA-fructose/glucose system); assay: Fluorescent AGEs formation in a BSA-fructose/glucose system; assay type: biochemical, bovine
Description: The formation of total fluorescent AGEs in glycated samples was assessed by determining their fluorescent intensities at an excitation/emission wavelength of 350/450 nm, as previously described. Glycated protein was prepared in vitro by incubating BSA in the presence of D-glucose (GLC) and D-fructose (FRC). The DOF extract and specific standards were dissolved in DMSO:water (1:4). BSA (4 mg/ml, 100 μl) was preliminary mixed with 50 μl of GLC (0.5 M) and 50 μl of FRC (0.5 M) in 20 mM sodium phosphate buffer (pH 7.4), and then 100 μl samples were added in the 96-well plate and incubated at 37.5° C. for 7 days. All solutions were prepared under sterile conditions and filtered using a 0.22-μm syringe before incubation. The assay was performed in triplicate, and AG was used as a positive control.

IC50, fluorescent AGEs ([3]; BSA-fructose/glucose, 37.5° C., 7 days, text b277): 177.3 ± 11.6 µg/mL
IC50 ([3]; read-out: IC50, AGE formation): 1600 µM
SMILES: N=C(N)NN [Aminoguanidine hydrochloride]
Anti-glycation effect, CML expression, AVE ([1]; 0.1 mM, 48 h after 0.5 mM glyoxal, Glyoxal = 100.00): 11.89
inhibition of glycation ([1]; positive compound AG, MGO-induced HDFs, CML IF): 88.11%
AGEs fluorescence value (mean ± SE) [2]: 35106 ± 770
